The results in this text go back to patent US9650366B2, “Heterocycle-substituted pyridyl benzothiophenes as kinase inhibitors” (Allergan, Inc., priority 2014, dated 2017).

Structures are written as SMILES.

Format in all cases: biochemical
One experiment addresses VEGFR2 (KDR) (Homo sapiens (Human), UniProt P35968). In words: VEGFR2 Kinase Assay. Conditions: purified cytoplasmic domain KDR protein, 2.7 μM ATP. Here is the method:
Biochemical KDR kinase assays were performed in 96 well microtiter plates that were coated overnight with 75 μg/well of poly-Glu-Tyr (4:1) in 10 mM Phosphate Buffered Saline (PBS), pH 7.4. The coated plates were washed with 2 mls per well PBS+0.05% Tween-20 (PBS-T), blocked by incubation with PBS containing 1% BSA, then washed with 2 mls per well PBS-T prior to starting the reaction. Reactions were carried out in 100 μL reaction volumes containing 2.7 μM ATP in kinase buffer (50 mM Hepes buffer pH 7.4, 20 mM MgCl2, 0.1 mM MnCl2 and 0.2 mM Na3VO4). Test compounds were reconstituted in 100% DMSO and added to the reaction to give a final DMSO concentration of 5%. Reactions were initiated by the addition 20 ul per well of kinase buffer containing 200-300 ng purified cytoplasmic domain KDR protein (BPS Bioscience, San Diego, Calif.). Following a 15 minute incubation at 30° C., the reactions were washed 2 mls per well PBS-T. 100 μl of a monoclonal anti-phosphotyrosine antibody-peroxidase conjugate diluted 1:10,000 in PBS-T was added to the wells for 30 minutes. Following a 2 mls per well wash with PBS-Tween-20, 100 μl of 0-Phenylenediamine Dihydrochloride in phosphate-citrate buffer, containing urea hydrogen peroxide, was added to the wells for 7-10 minutes as a colorimetric substrate for the peroxidase. The reaction was terminated by the addition of 100 μl of 2.5N H2SO4 to each well and read using a microplate ELISA reader set at 492 nm. IC50 values for compound inhibition were calculated directly from graphs of optical density (arbitrary units) versus compound concentration following subtraction of blank values.

For the next experiment, the target named is human GST-PKR (Homo sapiens (Human), UniProt P19525). In words: PKR KinaseGlo Assay. Conditions: recombinant human GST-PKR, 6.6 uM ATP. The method, then:
Commercially available recombinant human GST-PKR (SignalChem, Canada; 1.5 uM-2 uM stock) is diluted to 500 nM in assay buffer (20 mM Tris-HCl, pH 7.2, 10 mM KCl, 10 mM MgCl2, 10% glycerol). Preactivated PKR is dispensed to 384/96-well black plates at 3.125/12.5 uls/well using the liquid handler Janus. Appropriate dilutions of inhibitors are added to 384/96-well plate followed by 6.6 uM ATP (final) and incubated for 10 minutes at room temperature. The remaining ATP/well is determined by adding 6.25/25 uls/well Kinase-Glo assay mix (Promega) and luminescence is measured on EnVision luminescence plate reader (integration time, 0.2 sec; Perkin-Elmer, Massachusetts, USA). The % inhibition for the compounds is calculated using ATP only (100% inhibition) and PKR+ATP (0% inhibition). IC50 values are determined by plotting % activity versus inhibitor concentration. Curves are fitted using Activity base XLfit (IDBS, UK) using the formula—
4 Parameter Logistic Model
fit=(A+((B−A)/(1+(10^((C−x)*D))))) inv=(C−(log(((B−A)/(y−A))−1)/D)) res=(y−fit)

A further experiment addresses PDGFRβ (Homo sapiens (Human), UniProt P09619). In words: PDGFRβ Kinase Assay. The note with it: purified cytoplasmic domain PDGFR-b protein, 36 μM ATP. The method, then: Biochemical PDGFRβ kinase assays were performed in 96 well microtiter plates that were coated overnight with 75 μg of poly-Glu-Tyr (4:1) in 10 mM Phosphate Buffered Saline (PBS), pH 7.4. The coated plates were washed with 2 mls per well PBS+0.05% Tween-20 (PBS-T), blocked by incubation with PBS containing 1% BSA, then washed with 2 mls per well PBS-T prior to starting the reaction. Reactions were carried out in 100 μL reaction volumes containing 36 μM ATP in kinase buffer (50 mM Hepes buffer pH 7.4, 20 mM MgCl2, 0.1 mM MnCl2 and 0.2 mM Na3VO4). Test compounds were reconstituted in 100% DMSO and added to the reaction to give a final DMSO concentration of 5%. Reactions were initiated by the addition 20 ul per well of kinase buffer containing 200-300 ng purified cytoplasmic domain PDGFR-b protein (Millipore). Following a 60 minute incubation at 30° C., the reactions were washed 2 mls per well PBS-T. 100 μl of a monoclonal anti-phosphotyrosine antibody-peroxidase conjugate diluted 1:10,000 in PBS-T was added to the wells for 30 minutes. […] The reaction was terminated by the addition of 100 μl of 2.5N H2SO4 to each well and read using a microplate ELISA reader set at 492 nm. IC50 values for compound inhibition were calculated directly from graphs of optical density (arbitrary units) versus compound concentration following subtraction of blank values.

Sequence of VEGFR2 (KDR) (P35968 786-1356): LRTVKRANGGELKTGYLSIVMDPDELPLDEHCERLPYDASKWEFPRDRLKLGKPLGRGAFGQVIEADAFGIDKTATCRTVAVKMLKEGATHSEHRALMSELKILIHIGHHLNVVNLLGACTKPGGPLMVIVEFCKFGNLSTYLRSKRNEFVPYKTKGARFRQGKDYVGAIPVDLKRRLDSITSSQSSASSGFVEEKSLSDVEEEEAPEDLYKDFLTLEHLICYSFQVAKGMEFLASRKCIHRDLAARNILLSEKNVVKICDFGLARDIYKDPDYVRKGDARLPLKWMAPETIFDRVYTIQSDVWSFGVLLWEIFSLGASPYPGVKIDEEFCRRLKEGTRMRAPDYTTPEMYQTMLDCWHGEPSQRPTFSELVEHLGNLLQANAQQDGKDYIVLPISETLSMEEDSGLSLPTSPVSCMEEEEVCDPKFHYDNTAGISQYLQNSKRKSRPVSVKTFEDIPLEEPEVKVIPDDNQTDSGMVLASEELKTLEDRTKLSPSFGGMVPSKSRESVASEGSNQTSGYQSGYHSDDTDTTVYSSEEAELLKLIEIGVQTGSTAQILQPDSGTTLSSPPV
Sequence of human GST-PKR (P19525 whole entry): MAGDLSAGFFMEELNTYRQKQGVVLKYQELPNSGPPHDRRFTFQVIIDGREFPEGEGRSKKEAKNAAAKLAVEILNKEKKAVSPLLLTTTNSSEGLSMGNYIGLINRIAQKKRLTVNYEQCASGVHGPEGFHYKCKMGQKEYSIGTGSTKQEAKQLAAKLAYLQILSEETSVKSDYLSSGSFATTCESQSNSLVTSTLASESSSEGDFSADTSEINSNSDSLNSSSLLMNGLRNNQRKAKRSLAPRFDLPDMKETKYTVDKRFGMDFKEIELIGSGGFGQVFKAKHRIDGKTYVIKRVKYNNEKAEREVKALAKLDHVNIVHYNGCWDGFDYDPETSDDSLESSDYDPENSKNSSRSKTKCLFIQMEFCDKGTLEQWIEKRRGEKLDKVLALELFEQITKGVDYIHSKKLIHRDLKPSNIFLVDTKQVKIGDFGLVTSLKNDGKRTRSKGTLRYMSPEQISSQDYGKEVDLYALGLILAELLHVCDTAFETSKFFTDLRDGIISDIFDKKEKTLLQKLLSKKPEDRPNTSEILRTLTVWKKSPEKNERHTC
Sequence of PDGFRβ (P09619 554-1106): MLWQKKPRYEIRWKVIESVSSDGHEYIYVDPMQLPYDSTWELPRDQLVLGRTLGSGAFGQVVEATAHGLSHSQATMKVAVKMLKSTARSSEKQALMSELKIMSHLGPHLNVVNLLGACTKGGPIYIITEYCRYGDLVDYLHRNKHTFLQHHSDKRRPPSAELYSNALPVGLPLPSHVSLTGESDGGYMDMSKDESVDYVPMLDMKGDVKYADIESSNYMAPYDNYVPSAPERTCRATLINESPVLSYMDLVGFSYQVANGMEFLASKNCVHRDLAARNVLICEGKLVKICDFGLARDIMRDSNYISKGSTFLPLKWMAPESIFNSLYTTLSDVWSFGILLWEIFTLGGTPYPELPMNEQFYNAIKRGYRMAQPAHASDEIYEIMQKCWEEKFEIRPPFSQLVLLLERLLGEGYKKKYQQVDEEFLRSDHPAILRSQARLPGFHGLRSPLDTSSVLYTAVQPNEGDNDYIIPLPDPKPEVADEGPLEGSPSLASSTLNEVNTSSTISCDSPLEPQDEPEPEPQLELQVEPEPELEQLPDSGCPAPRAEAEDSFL

Consider `O=C(Nc1ccc(C#Cc2cncc(-c3nnn(CCCO)n3)c2)cc1)Nc1cc(C(F)(F)F)ccc1F` [Example 12, 1-[2-fluoro-5-(trifluoromethyl)phenyl]-3-[4-({5-[2-(3-hydroxypropyl)-2H-tetrazol-5-yl]pyridin-3-yl}ethynyl)phenyl]urea], for which the values for the IC50 on VEGFR2 (KDR) and at human GST-PKR were 8 nM and greater than 10000 nM, respectively. As to `Nc1ncc(-c2nnn(CCCO)n2)cc1-c1cc2cc(NC(=O)Nc3cc(C(F)(F)F)cc(C(F)(F)F)c3)ccc2s1` [Example 6, 1-(2-{2-amino-5-[2-(3-hydroxypropyl)-2H-tetrazol-5-yl]pyridin-3-yl}-1-benzothien-5-yl)-3-[3,5-bis(trifluoromethyl)phenyl]urea], the IC50 at human GST-PKR was 66 nM. Turning to `Nc1ncc(-c2nnn(CCCO)n2)cc1-c1cc2cc(NC(=O)Nc3ccc(Cl)c(C(F)(F)F)c3)ccc2s1` [Example 3, 1-(2-{2-amino-5-[2-(3-hydroxypropyl)-2H-tetrazol-5-yl]pyridin-3-yl}-1-benzothien-5-yl)-3-[4-chloro-3-(trifluoromethyl)phenyl]urea], the IC50 at human GST-PKR came to 39 nM. For `Nc1ncc(-c2nnn(CCCO)n2)cc1-c1cc2cc(NC(=O)Nc3ccc(F)c(C(F)(F)F)c3)ccc2s1` [Example 4, 1-(2-{2-amino-5-[2-(3-hydroxypropyl)-2H-tetrazol-5-yl]pyridin-3-yl}-1-benzothien-5-yl)-3-[4-fluoro-3-(trifluoromethyl)phenyl]urea], the IC50 at human GST-PKR came out at 99 nM. For `Nc1ncc(-c2nn[nH]n2)cc1-c1cc2cc(NC(=O)Nc3ccc(Cl)c(C(F)(F)F)c3)ccc2s1` [Example 2, 1-{2-[2-amino-5-(2H-tetrazol-5-yl)pyridin-3-yl]-1-benzothien-5-yl}-3-[4-chloro-3-(trifluoromethyl)phenyl]urea], the IC50 on human GST-PKR is 140 nM. Regarding `Cc1cccc(C(=O)Nc2cccc(C#Cc3cncc(-c4nnn(CCCO)n4)c3)c2)c1` [Example 10, N-[3-({5-[2-(3-hydroxypropyl)-2H-tetrazol-5-yl]pyridin-3-yl}ethynyl)phenyl]-3-methylbenzamide], half-maximal inhibition against VEGFR2 (KDR) (IC50) was put at 7 nM. Consider `Cc1ccoc1C(=O)Nc1cccc(C#Cc2cncc(-c3nnn(CCCO)n3)c2)c1` [Example 9, N-[3-({5-[2-(3-hydroxypropyl)-2H-tetrazol-5-yl]pyridin-3-yl}ethynyl)phenyl]-3-methyl-2-furamide], for which the IC50 was 21 nM against PDGFRβ, 5 nM on VEGFR2 (KDR) and greater than 10000 nM at human GST-PKR.

`Nc1ncc(-c2nnn(CCCO)n2)cc1-c1cc2cc(NC(=O)Nc3cc(F)cc(C(F)(F)F)c3)ccc2s1` [Example 5, 1-(2-{2-amino-5-[2-(3-hydroxypropyl)-2H-tetrazol-5-yl]pyridin-3-yl}-1-benzothien-5-yl)-3-[3-fluoro-5-(trifluoromethyl)phenyl]urea]: the IC50 on human GST-PKR turned out to be 76 nM. Same read-out and setting: for `Nc1ncc(-c2nnn(CCCO)n2)cc1C#Cc1cccc(NC(=O)Nc2ccc(Cl)c(C(F)(F)F)c2)c1` [Example 11, 1-[3-({2-amino-5-[2-(3-hydroxypropyl)-2H-tetrazol-5-yl]pyridin-3-yl}ethynyl)phenyl]-3-[4-chloro-3-(trifluoromethyl)phenyl]urea] the value was 158 nM. As for `Nc1ncc(-c2nnn(CCO)n2)cc1-c1cc2cc(NC(=O)Nc3ccc(Cl)c(C(F)(F)F)c3)ccc2s1` [Example 8, 1-(2-{2-amino-5-[2-(2-hydroxyethyl)-2H-tetrazol-5-yl]pyridin-3-yl}-1-benzothien-5-yl)-3-[4-chloro-3-(trifluoromethyl)phenyl]urea], the IC50 at human GST-PKR amounted to 82 nM. Same read-out and setting: for `Nc1ncc(-c2cnccn2)cc1-c1cc2cc(NC(=O)Nc3ccc(Cl)c(C(F)(F)F)c3)ccc2s1` [Example 14, 1-[2-(2-amino-5-pyrazin-2-ylpyridin-3-yl)-1-benzothien-5-yl]-3-[4-chloro-3-(trifluoromethyl)phenyl]urea] the value was 301 nM; for `Nc1ncc(-c2ncccn2)cc1-c1cc2cc(NC(=O)Nc3ccc(Cl)c(C(F)(F)F)c3)ccc2s1` [Example 13, 1-[2-(2-amino-5-pyrimidin-2-ylpyridin-3-yl)-1-benzothien-5-yl]-3-[4-chloro-3-(trifluoromethyl)phenyl]urea], 558 nM. For the molecule `O=C(Nc1ccc(Cl)c(C(F)(F)F)c1)Nc1ccc2sc(-c3cncc(-c4nn[nH]n4)c3)cc2c1` [Example 1, 1-[4-chloro-3-(trifluoromethyl)phenyl]-3-{2-[5-(2H-tetrazol-5-yl)pyridin-3-yl]-1-benzothien-5-yl}urea], the IC50 on human GST-PKR amounted to 727 nM.
